Series [1] in a line: Plasma protein binding in rat at 1 uM.
The conditions of series [2]: rat, in vivo, iv, 1 mg/kg, 24 h.
For series [3] the following is noted: rat, in vivo, po, 5 mg/kg, 24 h.
For series [4], the target named is Wee1-like protein kinase (Homo sapiens, UniProt P30291). The series is described as follows: Inhibition of WEE1 (unknown origin).
Series [5] deals with T1, Membrane-associated tyrosine- and threonine-specific cdc2-inhibitory kinase (Homo sapiens, UniProt Q99640).
T1 sequence (Q99640 whole entry): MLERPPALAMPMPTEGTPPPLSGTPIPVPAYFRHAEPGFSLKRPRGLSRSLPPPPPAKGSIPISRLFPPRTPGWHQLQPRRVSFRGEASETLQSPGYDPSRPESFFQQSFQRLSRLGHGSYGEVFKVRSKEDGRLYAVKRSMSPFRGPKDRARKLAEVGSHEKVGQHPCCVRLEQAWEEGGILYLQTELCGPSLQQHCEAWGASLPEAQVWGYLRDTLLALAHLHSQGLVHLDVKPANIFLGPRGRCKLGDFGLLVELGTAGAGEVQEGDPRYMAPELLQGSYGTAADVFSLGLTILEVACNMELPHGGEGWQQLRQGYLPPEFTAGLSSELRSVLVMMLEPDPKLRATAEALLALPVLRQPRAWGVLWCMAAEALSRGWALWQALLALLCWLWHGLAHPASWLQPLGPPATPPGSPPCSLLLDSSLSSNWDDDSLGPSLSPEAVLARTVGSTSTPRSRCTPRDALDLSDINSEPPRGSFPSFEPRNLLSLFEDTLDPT

Series [6] concerns the target Cytochrome P450 2D6 (Homo sapiens, UniProt P10635). Put plainly: Inhibition of CYP2D6 (unknown origin).
Series [7] deals with Cytochrome P450 2C9 (Homo sapiens, UniProt P11712). Put plainly: Inhibition of CYP2C9 (unknown origin).
A short description of series [8]: Apparent permeability across apical to basolateral side in human Caco-2 cells. For orientation: Caco-2 cells form a polarised layer with tight junctions and transporters.
In series [9] the target is Cytochrome P450 3A4 (Homo sapiens, UniProt P08684). Put plainly: Inhibition of CYP3A4 (unknown origin).
A short description of series [10]: Metabolic stability in human hepatocytes assessed as intrinsic clearance measured per 10^6 cells.

Molecules are shown by their SMILES. pIC50: −log10 of the molar value.

From ChEMBL document CHEMBL5137074 (J Med Chem, 2022) come the findings set out here.

By pIC50 is commonly meant the negative decadic logarithm of the IC50, by convention in mol/L.

Wee1-like protein kinase, sequence (P30291 whole entry): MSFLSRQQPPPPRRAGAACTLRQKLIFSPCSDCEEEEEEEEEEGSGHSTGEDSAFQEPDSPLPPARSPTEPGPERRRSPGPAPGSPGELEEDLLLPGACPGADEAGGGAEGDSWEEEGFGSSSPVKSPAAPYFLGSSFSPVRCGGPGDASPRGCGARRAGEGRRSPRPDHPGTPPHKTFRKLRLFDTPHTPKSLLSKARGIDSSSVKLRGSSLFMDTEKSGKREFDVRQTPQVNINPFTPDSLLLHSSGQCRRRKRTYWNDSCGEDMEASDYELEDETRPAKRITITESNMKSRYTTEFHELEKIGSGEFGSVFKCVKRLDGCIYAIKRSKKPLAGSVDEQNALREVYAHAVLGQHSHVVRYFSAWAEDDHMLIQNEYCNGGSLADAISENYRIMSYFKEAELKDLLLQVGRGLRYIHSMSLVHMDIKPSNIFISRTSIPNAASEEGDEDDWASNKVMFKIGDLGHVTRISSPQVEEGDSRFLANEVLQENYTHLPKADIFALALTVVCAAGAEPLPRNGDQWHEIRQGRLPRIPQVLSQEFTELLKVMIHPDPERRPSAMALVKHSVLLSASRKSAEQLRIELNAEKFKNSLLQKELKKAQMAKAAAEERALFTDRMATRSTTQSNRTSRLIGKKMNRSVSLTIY
Cytochrome P450 2D6, sequence (P10635 whole entry): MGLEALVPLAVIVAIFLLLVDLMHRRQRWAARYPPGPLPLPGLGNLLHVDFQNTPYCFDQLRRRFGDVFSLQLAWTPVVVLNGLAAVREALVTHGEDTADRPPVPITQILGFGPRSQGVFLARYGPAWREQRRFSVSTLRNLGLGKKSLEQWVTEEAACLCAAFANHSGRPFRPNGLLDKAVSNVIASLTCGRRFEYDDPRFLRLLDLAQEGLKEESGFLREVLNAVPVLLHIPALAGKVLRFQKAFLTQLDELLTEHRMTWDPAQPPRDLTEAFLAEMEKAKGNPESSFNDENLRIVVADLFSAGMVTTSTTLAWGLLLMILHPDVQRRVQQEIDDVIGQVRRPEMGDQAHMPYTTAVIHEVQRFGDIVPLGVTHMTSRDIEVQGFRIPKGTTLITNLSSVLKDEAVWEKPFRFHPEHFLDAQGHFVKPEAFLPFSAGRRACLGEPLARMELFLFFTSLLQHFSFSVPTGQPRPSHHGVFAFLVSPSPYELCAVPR
Cytochrome P450 2C9, sequence (P11712 whole entry): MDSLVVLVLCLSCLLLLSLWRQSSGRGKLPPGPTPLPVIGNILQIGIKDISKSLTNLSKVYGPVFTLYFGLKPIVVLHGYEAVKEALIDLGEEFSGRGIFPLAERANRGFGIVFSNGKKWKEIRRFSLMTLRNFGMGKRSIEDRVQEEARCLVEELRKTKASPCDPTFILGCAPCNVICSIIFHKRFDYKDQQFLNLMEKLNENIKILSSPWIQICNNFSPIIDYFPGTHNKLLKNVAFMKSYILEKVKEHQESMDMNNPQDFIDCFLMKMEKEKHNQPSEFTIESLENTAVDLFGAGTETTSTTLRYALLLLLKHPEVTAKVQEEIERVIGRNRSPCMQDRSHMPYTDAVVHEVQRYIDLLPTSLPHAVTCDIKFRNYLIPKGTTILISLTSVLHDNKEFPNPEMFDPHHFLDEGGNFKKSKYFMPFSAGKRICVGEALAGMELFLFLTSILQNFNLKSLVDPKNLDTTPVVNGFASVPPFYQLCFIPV
Cytochrome P450 3A4, sequence (P08684 whole entry): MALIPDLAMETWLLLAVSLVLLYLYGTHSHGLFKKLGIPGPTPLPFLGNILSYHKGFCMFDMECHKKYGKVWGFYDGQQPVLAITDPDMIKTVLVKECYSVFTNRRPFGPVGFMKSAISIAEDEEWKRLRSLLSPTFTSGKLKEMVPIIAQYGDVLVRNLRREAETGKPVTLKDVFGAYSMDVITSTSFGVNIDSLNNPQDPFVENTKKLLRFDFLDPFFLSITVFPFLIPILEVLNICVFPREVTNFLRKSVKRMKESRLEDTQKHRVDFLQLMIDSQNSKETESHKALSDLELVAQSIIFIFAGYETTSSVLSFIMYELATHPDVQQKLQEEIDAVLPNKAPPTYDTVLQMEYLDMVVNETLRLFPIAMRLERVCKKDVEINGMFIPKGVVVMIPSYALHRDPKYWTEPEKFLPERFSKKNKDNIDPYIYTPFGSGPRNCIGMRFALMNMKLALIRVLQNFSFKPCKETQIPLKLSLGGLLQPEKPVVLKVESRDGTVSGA

The molecule `Cc1ccc(O)c(C)c1-n1c(N)c(C(N)=O)c2cc(Cl)c(C)nc21` displayed a PPB in series [1] of 93.1%. In addition, in series [2], the CL free turned out to be 731 mL/min/kg. This molecule also returned a F in [3] of 24%.
In turn, `Cc1c(O)ccc(Cl)c1-n1c(N)c(C(N)=O)c2nc3ccccc3nc21` had a pIC50 in [4] of 6.64.
`Cc1ccc(O)c(C)c1-n1c(N)c(C(N)=O)c2nc3cccc(Br)c3nc21` showed a pIC50 in series [5] of more than 8.52.
The same measure, in the same setting: for `Cc1ccc(O)c(C)c1-n1c(N)c(C(N)=O)c2nc3cc(Br)ccc3nc21` the value was more than 8.52; for `NC(=O)c1c(N)n(-c2cccc3[nH]cnc23)c2nc3ccccc3nc12`, less than 4.70.
For `NC(=O)c1c(N)n(-c2cccc(O)c2)c2nc3ccccc3nc12`, in series [4], the pIC50 is 4.71.
`Cc1ccc(O)c(C)c1-n1c(N)c(C(N)=O)c2nc3cccc(-c4ccnn4C)c3nc21` showed a pIC50 in [5] of more than 8.52.
In turn, `NC(=O)c1c(N)n(-c2c(Cl)ccc(O)c2Cl)c2nc3ccccc3nc12` had a pIC50 in [4] of 6.66.
In the case of `NC(=O)c1c(N)n(-c2cccc3[nH]ncc23)c2nc3ccccc3nc12`, the pIC50 in series [4] is 5.28.
Regarding `Cc1ccc(N)cc1-n1c(N)c(C(N)=O)c2nc3ccccc3nc21`, in series [5], the pIC50 was less than 4.70.
As for `Cc1ccccc1-n1c(N)c(C(N)=O)c2nc3ccccc3nc21`, the pIC50 in series [5] was less than 4.70.
On the same count and under the same terms, next, `Cc1ccc(Cl)c(C)c1-n1c(N)c(C(N)=O)c2nc3ccccc3nc21`: less than 4.70.
In [1], `Cc1ccc(O)c(C)c1-n1c(N)c(C(N)=O)c2cc(C3CC3)cnc21` returned a PPB of 80.3%. Further, the CL free in series [2] worked out at 170 mL/min/kg. Moreover, the F in [3] is 28%.
`Cc1ccc(C(F)F)cc1-n1c(N)c(C(N)=O)c2nc3ccccc3nc21` showed a pIC50 in [5] of less than 4.70.
On to `Cc1ccc(O)c(C)c1-n1c(N)c(C(N)=O)c2nc(N3CCOCC3)cnc21`, for which the negative-log IC50 (pIC50) in series [6], in [7] and in series [9] was less than 4.52 in each case. The Papp in series [8] was 5.8 10^-6 cm/s. Further, the PPB in [1] was determined as 62.8%. Besides, the CLH in series [10] was less than 3 µL/min. This molecule returned a CL free in series [2] of 151 mL/min/kg. In series [3], the F is recorded as 18%.
`Cc1ccc(O)c(C)c1-n1c(N)c(C(N)=O)c2nc3cccc(C4=CCCC4)c3nc21` showed a pIC50 in [5] of more than 8.52.
With `Cc1ccc(O)c(C)c1-n1c(N)c(C(N)=O)c2nccnc21`, the pIC50 in series [6], in series [7] and in series [9] was less than 4.52 throughout. In addition, the Papp in series [8] is 19 10^-6 cm/s. This molecule came in with a PPB in [1] of 81%. Moreover, the CLH in series [10] is less than 3 µL/min. Further, in [2], the CL free amounted to 81 mL/min/kg. In series [3], this molecule gave an F of 56%.
For `Cc1c(O)cccc1-n1c(N)c(C(N)=O)c2nc3ccccc3nc21`, the pIC50 in [4] is 5.66.
Take `NC(=O)c1c(N)n(-c2cccc3[nH]ccc23)c2nc3ccccc3nc12`: the pIC50 in series [5] was less than 4.70.
Molecule `Cc1ccc(O)c(C)c1-n1c(N)c(C(N)=O)c2nc3ccccc3nc21` gave a pIC50 in series [4] of 6.24.
Same read-out and setting: next, `Cc1ccc2[nH]ncc2c1-n1c(N)c(C(N)=O)c2nc3ccccc3nc21`: 5.49.
`Cc1cnc2c(c1)c(C(N)=O)c(N)n2-c1c(C)ccc(O)c1C` showed a PPB in series [1] of 73.8%. In series [2], this molecule registered a CL free of 76 mL/min/kg. This molecule gave a F in series [3] of 62%.
`NC(=O)c1c(N)n(-c2cccc3[nH]nnc23)c2nc3ccccc3nc12` showed a pIC50 in series [5] of less than 4.70.
